Test results taken from the supplement of paper PMC10307832.

Legend:
Experiment in all cases: relative viability (nuclei count vs DMSO), 5 days (fraction); higher = more cells survive
[1] = compound: CC(C)C[C@H](NC(=O)[C@H](Cc1ccccc1)NC(=O)c1cnccn1)B(O)O [Bortezomib] + CC(=O)Nc1cccc(-n2c(=O)n(C3CC3)c(=O)c3c(Nc4ccc(I)cc4F)n(C)c(=O)c(C)c32)c1 [Trametinib] (partner 0.02 µM)
Summary of the method: (§1)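 Relative viability equals treated-well nuclei counts divided by vehicle-well nuclei counts. Counts came from 4× images of lung cancer cell lines grown in 1536-well plates for 5 days after pin-tool dosing on the day after seeding. Dosing used one drug alone or a fixed anchor-drug dose plus five library-drug doses (not always all listed) in √10 steps, and values are medians of duplicate plates.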

[2] = compound: CC(C)C[C@H](NC(=O)[C@H](Cc1ccccc1)NC(=O)c1cnccn1)B(O)O [Bortezomib] + N=C(N)NC(=N)NCCc1ccccc1 [Phenformin] (partner 250 µM)
Summary of the method: as §1

[3] = compound: CC1=CC(=NN1)NC2=CC(=NC(=N2)/C=C/C3=CC=CC=C3)N4CCN(CC4)C + Cc1cc(Nc2cc(N3CCN(C)CC3)nc(Sc3ccc(NC(=O)C4CC4)cc3)n2)n[nH]1 [Tozasertib] (partner 0.1 µM)
Summary of the method: as §1

[4] = compound: CC1=CC(=NN1)NC2=CC(=NC(=N2)/C=C/C3=CC=CC=C3)N4CCN(CC4)C + N=C(N)NC(=N)NCCc1ccccc1 [Phenformin] (partner 250 µM)
Summary of the method: as §1

Row | Cell Line | relative viability ([1]; first compound 0.0002 µM) | relative viability ([1]; first compound 0.000632 µM) | relative viability ([1]; first compound 0.002 µM) | relative viability ([1]; first compound 0.006325 µM) | relative viability ([1]; first compound 0.02 µM) | relative viability ([2]; first compound 0.0002 µM) | relative viability ([2]; first compound 0.000632 µM) | relative viability ([2]; first compound 0.002 µM) | relative viability ([2]; first compound 0.006325 µM) | relative viability ([2]; first compound 0.02 µM) | relative viability ([3]; first compound 0.08 µM) | relative viability ([3]; first compound 0.253 µM) | relative viability ([3]; first compound 0.8 µM) | relative viability ([3]; first compound 2.53 µM) | relative viability ([3]; first compound 8 µM) | relative viability ([4]; first compound 0.08 µM) | relative viability ([4]; first compound 0.253 µM) | relative viability ([4]; first compound 0.8 µM) | relative viability ([4]; first compound 2.53 µM) | relative viability ([4]; first compound 8 µM)
1 | 201T | 0.732 | 0.72 | 0.685 | 0.625 | 0.262 | 0.456 | 0.402 | 0.483 | 0.44 | 0.24 | 0.973 | 0.916 | 0.746 | 0.388 | 0.25 | 0.454 | 0.461 | 0.415 | 0.373 | 0.258
2 | A549 |  |  |  |  |  | 0.154 | 0.231 | 0.18 | 0.0502 | 0.0365 |  |  |  |  |  | 0.178 | 0.181 | 0.195 | 0.0435 | 0.025
3 | A-427 | 0.657 | 0.842 | 0.696 | 0.216 | 0.161 | 0.253 | 0.246 | 0.339 | 0.212 | 0.11 | 0.212 | 0.136 | 0.178 | 0.0979 | 0.0938 | 0.347 | 0.21 | 0.282 | 0.121 | 0.0986
4 | ABC-1 |  |  |  |  |  | 0.231 | 0.227 | 0.202 | 0.186 | 0.175 | 0.191 | 0.164 | 0.191 | 0.207 | 0.182 | 0.199 | 0.192 | 0.26 | 0.234 | 0.187
5 | BEN | 0.856 | 0.953 | 0.87 | 0.829 | 0.29 | 0.258 | 0.266 | 0.264 | 0.259 | 0.174 | 0.492 | 0.533 | 0.451 | 0.364 | 0.38 | 0.228 | 0.269 | 0.259 | 0.236 | 0.196
6 | CAL-12T | 0.378 | 0.335 | 0.327 | 0.156 | 0.133 | 0.552 | 0.585 | 0.586 | 0.25 | 0.114 | 0.25 | 0.303 | 0.251 | 0.172 | 0.143 | 0.608 | 0.489 | 0.442 | 0.17 | 0.109
7 | COR-L23 | 0.478 | 0.586 | 0.704 | 0.0593 | 0.06 | 0.466 | 0.429 | 0.4 | 0.0535 | 0.0571 | 0.163 | 0.182 | 0.148 | 0.1 | 0.0908 | 0.45 | 0.479 | 0.414 | 0.0934 | 0.0951
8 | COR-L 105 | 0.449 | 0.42 | 0.414 | 0.375 | 0.376 | 0.542 | 0.4 | 0.428 | 0.328 | 0.256 | 0.372 | 0.304 | 0.348 | 0.248 | 0.246 | 0.453 | 0.495 | 0.469 | 0.213 | 0.17
9 | ChaGo-K-1 | 0.882 | 0.89 | 0.85 | 0.279 | 0.144 | 0.416 | 0.455 | 0.45 | 0.462 | 0.153 | 0.222 | 0.227 | 0.217 | 0.195 | 0.172 | 0.482 | 0.442 | 0.434 | 0.151 | 0.121
10 | EKVX | 0.345 | 0.38 | 0.208 | 0.174 | 0.0845 | 0.238 | 0.237 | 0.238 | 0.239 | 0.139 | 0.396 | 0.451 | 0.383 | 0.196 | 0.104 | 0.236 | 0.21 | 0.236 | 0.189 | 0.109
11 | EMC-BAC-2 | 1.02 | 1.01 | 0.803 | 0.341 | 0.307 | 0.551 | 0.459 | 0.477 | 0.209 | 0.211 | 0.282 | 0.249 | 0.254 | 0.234 | 0.149 | 0.511 | 0.559 | 0.432 | 0.228 | 0.0995
12 | EPLC-272H | 0.324 | 0.279 | 0.233 | 0.073 | 0.0585 | 0.353 | 0.245 | 0.35 | 0.109 | 0.0723 | 0.34 | 0.203 | 0.273 | 0.113 | 0.122 | 0.315 | 0.24 | 0.258 | 0.147 | 0.135
13 | H3255 | 0.593 | 0.69 | 0.331 | 0.239 | 0.274 | 0.368 | 0.346 | 0.334 | 0.307 | 0.288 | 0.79 | 0.71 | 0.374 | 0.513 | 0.297 | 0.369 | 0.362 | 0.684 | 0.341 | 0.27
14 | HARA | 0.642 | 0.592 | 0.896 | 0.0979 | 0.189 | 0.374 | 0.447 | 0.512 | 0.222 | 0.0528 | 0.111 | 0.108 | 0.11 | 0.0787 | 0.0585 | 0.47 | 0.513 | 0.343 | 0.211 | 0.138
15 | HCC-15 | 0.39 | 0.394 | 0.426 | 0.117 | 0.104 | 0.44 | 0.448 | 0.458 | 0.0952 | 0.0863 | 0.291 | 0.355 | 0.18 | 0.0787 | 0.0703 | 0.472 | 0.452 | 0.434 | 0.107 | 0.0823
16 | HCC-44 | 1.1 | 1.04 | 0.984 | 0.92 | 0.277 | 0.195 | 0.194 | 0.204 | 0.162 | 0.111 | 0.83 | 1.05 | 0.67 | 0.268 | 0.146 | 0.123 | 0.326 | 0.215 | 0.102 | 0.115
17 | HCC-78 | 0.799 | 0.699 | 0.312 | 0.196 | 0.233 | 0.699 | 0.641 | 0.676 | 0.712 | 0.364 | 0.365 | 0.427 | 0.352 | 0.304 | 0.253 | 0.647 | 0.704 | 0.722 | 0.381 | 0.293
